Calls of active or inactive are those of the source. The rule behind the calls is not given here.
Tested on: MRP1 cells, doxorubicin viability shift, 10 uM compound
Experiment: doxorubicin EC50 increase in MRP-1 cells, dose response, cell-based, doxorubicin EC50 shift (AID 844)
Details: for EC50: measured here: doxorubicin EC50 with compound

| SMILES | fold increase in Dox EC50 | EC50 [µM] |
| --- | --- | --- |
| N#C/C(=N/Nc1ccccc1F)C(=N)N1CCOCC1 | 0.99 (inactive) | 5.33 |
| COc1ccccc1C1CC(c2ccc(Cl)cc2Cl)Nc2nc(N)nn21 (centres undefined) | 0.95 (inactive) | 5.11 |
| O=C(Nc1nc(-c2cccc([N+](=O)[O-])c2)cs1)C(c1ccccc1)c1ccccc1 | 1.69 | 9.1 |
| Cc1ccc(S(=O)(=O)N2CCC(C(=O)N[C@@H](C)C(=O)NC3CCCCC3)CC2)cc1 | 0.88 (inactive) | 4.73 |
| COC(=O)c1cnn(-c2cc(Oc3ccccc3)ncn2)c1N | 0.76 (inactive) | 4.11 |
| COc1cccc(/C=N/NC(=O)CNC(=O)c2ccc3c(c2)OCCO3)c1O | 0.5 (inactive) | 2.71 |
| COc1cc(C)ccc1N(CCCN1C(=O)c2cccc3cccc(c23)C1=O)C(=O)c1cccs1 | 1.13 (inactive) | 6.12 |
| O=C(COc1ccc(Cl)cc1)N1CCN(Cc2ccccc2)CC1 | 1.38 (inactive) | 7.48 |
| CC(=O)OCC(=O)[C@@]1(O)[C@H](C)C[C@H]2[C@@H]3CCC4=CC(=O)C=C[C@]4(C)[C@@]3(F)[C@@H](O)C[C@@]21C | 1 (inactive) | 5.42 |
| CCCn1c(C)cc(/C=C(\C#N)C(=O)OCC(=O)Nc2ccc(OC)c(Cl)c2)c1C | 0.7 (inactive) | 3.81 |
| Cc1cccc(NC(=O)CC2SC(=O)N(c3ccccc3)C2=O)c1 (centres undefined) | 0.95 (inactive) | 5.15 |
| CCOC(=O)c1c(-c2cccc([N+](=O)[O-])c2)csc1NC(=O)C1CCCCC1 | 0.34 (inactive) | 1.84 |
| CCCCCOc1ccc(CSc2ncn[nH]2)cc1 | 0.68 (inactive) | 3.69 |
| COc1ccccc1NC(=O)CSC1=NCCN1 | 0.68 (inactive) | 3.7 |
| CCNc1ccc(C(=O)OCC(=O)c2cc(C)n(Cc3ccc4c(c3)OCO4)c2C)cc1[N+](=O)[O-] | 1.06 (inactive) | 5.74 |
| Oc1c(C(c2cccs2)N2CCN(c3ccccc3)CC2)sc2ncnn12 (centres undefined) | 0.93 (inactive) | 5.02 |
| CNC(=O)CSc1nnc(COc2ccc(Cl)cc2)n1CCOC | 1.29 (inactive) | 6.95 |
| N#Cc1nc(COc2ccccc2)oc1N1CCCC1 | 0.77 (inactive) | 4.13 |
| COc1ccc(C2CC(c3ccc(Cl)cc3Cl)Nc3nc(N)nn32)cc1OC (centres undefined) | 1.05 (inactive) | 5.68 |
| Oc1c(C(c2ccccc2)N2CCc3ccccc3C2)sc2ncnn12 (centres undefined) | 0.45 (inactive) | 2.42 |
| Cc1cccc2cc(CN(Cc3cccs3)C(=S)NCc3ccco3)c(=O)[nH]c12 | 0.41 (inactive) | 2.21 |
| CCc1nn2c(N)c(/C=C3\C=Nc4ccccc43)c(=O)nc2s1 | 1.43 (inactive) | 7.74 |
| CC(C)(C)NC(NC(=O)Cc1ccccc1)C(Cl)(Cl)Cl (centres undefined) | 1.07 (inactive) | 5.77 |
| O=C(Nc1nnc(N2CCCCCC2)s1)c1cc(-c2ccc(Br)cc2)on1 | 0.91 (inactive) | 4.91 |
| Cc1nn(Cc2ccccc2)c(C)c1NC(=O)c1noc2c1CCc1ccccc1-2 | 0.95 (inactive) | 5.11 |
| Cn1c(=O)oc2cc(S(=O)(=O)N3CCCC(C(=O)NCC4COc5ccccc5O4)C3)ccc21 (centres undefined) | 0.53 (inactive) | 2.86 |

| SMILES | fold increase in Dox EC50 | EC50 [µM] |
| --- | --- | --- |
| COc1cccc(C2C(C(=O)Nc3nc4ccccc4s3)=C(C)NC3=C2C(=O)CC(C)(C)C3)c1OC (centres undefined) | 0.3 (inactive) | 1.6 |
| O=C(Nc1nc(-c2ccc(Oc3ccccc3)cc2)cs1)C1=COCCO1 | 0.84 (inactive) | 4.54 |
| CCCCCC(=O)Nc1ccc(S(=O)(=O)Nc2ccc(Cl)nn2)cc1 | 1.12 (inactive) | 6.04 |
| CCCN1C(=O)/C(=N\OCC(=O)NC23CC4CC(CC(C4)C2)C3)c2ccccc21 | 1.01 (inactive) | 5.43 |
| COc1ccc(CNc2nc3c(c(=O)n(Cc4ccc(Br)cc4)c(=O)n3C)n2C)cc1 | 0.95 (inactive) | 5.13 |
| Cc1cc(C)n(-c2ccc(C(=O)Nc3cccc(S(=O)(=O)N(C)C)c3)cc2)n1 | 0.73 (inactive) | 3.93 |
| Cc1ccc(C(c2sc3ncnn3c2O)N2CC(C)CC(C)C2)cc1 (centres undefined) | 0.72 (inactive) | 3.89 |
| CC(=O)N1CCN=C1SCc1ccc(Cl)cc1 | 1.06 (inactive) | 5.75 |
| Cc1n[nH]c(=S)n(/N=C/c2ccccn2)c1=O | 0.91 (inactive) | 4.9 |
| O=C(c1ccco1)N1CCN(c2nc(C3CC3)nc3c2nnn3Cc2ccccc2Cl)CC1 | 0.32 (inactive) | 1.7 |
| COc1ccc(Cl)cc1N1C(=O)C2CCCN2C1c1ccc(F)c(F)c1 (centres undefined) | 0.85 (inactive) | 4.61 |
| Cc1nnc(NC(=O)c2ccco2)s1 | 1.16 (inactive) | 6.28 |
| CCc1ccc(C2CC(c3ccccc3C)n3nc(N)nc3N2)cc1 (centres undefined) | 0.57 (inactive) | 3.07 |
| Cc1noc(/C=C/N(C)C)c1S(=O)(=O)N1CCCC(C(=O)NCc2ccccc2Cl)C1 (centres undefined) | 0.82 (inactive) | 4.42 |
| CC(SC1=NCCS1)C(=O)Nc1nnc(-c2ccc(Br)cc2)s1 (centres undefined) | 0.97 (inactive) | 5.24 |
| O=C1[C@@H]2C(Cc3ccc(O)cc3)NC3(C(=O)Nc4ccc(F)cc43)[C@@H]2C(=O)N1c1ccc(F)cc1 (some centres undefined) | 1.39 (inactive) | 7.52 |
| Cc1cccc(NC(=O)CSc2nc(-c3ccccc3)c(C#N)c(=O)[nH]2)c1C | 1.24 (inactive) | 6.71 |
| O=C(NNC1=C(C(=O)C(F)(F)F)CCC1)c1cccc(Cl)c1 | 1.03 (inactive) | 5.54 |
| O=C(CN1C(=O)S/C(=C\c2ccc(Cl)cc2)C1=O)NNC(=O)c1ccccc1O | 1.05 (inactive) | 5.65 |
| CCOC(=O)C1=C(C)N=c2s/c(=C\c3ccc(OC(C)=O)cc3)c(=O)n2C1/C=C/c1ccccc1 (centres undefined) | 0.34 (inactive) | 1.85 |
| O=C1c2ccccc2-c2nc3ccccc3n21 | 1.09 (inactive) | 5.87 |
| O=C(NN1C(=O)/C(=C\c2cccnc2)SC1=S)C(c1ccccc1)c1ccccc1 | 0.84 (inactive) | 4.56 |
| Cc1ccc(CC2S/C(=C(/C#N)C(=O)N3CCOCC3)N(c3ccccc3)C2=O)cc1 (centres undefined) | 1.18 (inactive) | 6.38 |
| COc1ccc(OC)c(-c2cc(C(=O)Nc3c(C)nn(Cc4ccccc4C)c3C)no2)c1 | 0.65 (inactive) | 3.49 |
| CCc1nnc(NC(=O)C2CCCN2S(=O)(=O)c2ccc(F)cc2)s1 (centres undefined) | 1.03 (inactive) | 5.54 |
| COc1ccccc1C1C(C(=O)c2sc(C)nc2C)=C(O)C(=O)N1CCN1CCOCC1 (centres undefined) | 0.71 (inactive) | 3.81 |

Source: PubChem BioAssay AID844 (SRMLSC, 2007)
